Patent publication US10351573B2, “Benzoic acid, benzoic acid derivatives and heteroaryl carboxylic acid conjugates of hydrocodone, prodrugs, methods of making and uses thereof” (KemPharm, Inc., priority 2009, dated 2019)
“Also recorded” adds a separate entry of the source. Ends that are not written are not given here.

Tests used:
[1] = Water solubility / feasibility of intranasal or intravenous dosing; conditions: water
[2] = Hydrolysis in 5% NaHCO3 for one hour; format: physicochemical
[3] = Hydrolysis to hydrocodone in 1 N hydrochloric acid for 1 hour
[4] = Chemical stability: hydrolysis of conjugates in water for one hour; format: physicochemical
Experimental: Exemplary conjugates of hydrocodone of the present technology and control test conjugates not of the present technology were tested for chemical stability under conditions similar to what a potential drug abuser may use to “extract” the active portion of the molecule, for example dissolved in water, hydrochloric acid or sodium bicarbonate either at ambient temperature or 100° C.

[5] = Oral PK profiles in rats (plasma hydrocodone, hydromorphone, intact Bz-HC by LC/MS/MS); conditions: equivalent to 2 mg/kg hydrocodone freebase
[6] = Intranasal PK profile in rats; conditions: equivalent to 2 mg/kg hydrocodone freebase

Row | Compound | water solubility (in words) [1] | %-release in 5% NaHCO3 ([2]; 5% NaHCO3, 100° C.) [%] | %-release in 5% NaHCO3 ([2]; 5% NaHCO3, ambient (~20° C.)) [%] | %-release in 1N HCl ([3]; 100° C.) [%] | %-release in 1N HCl ([3]; ambient (~20° C.)) [%] | %-release (conjugate hydrolyzed) in water ([4]; 100° C.) [%] | %-release (conjugate hydrolyzed) in water ([4]; ambient (about 20° C.)) [%] | other results
1 | COc1ccc2c3c1OC1C(OC(=O)c4cccc(O)c4)=CC[C@H]4[C@@H](C2)N(C)CC[C@]314 (stereo partly shown) [Compound 3-OH-Bz-HC] | poorly water soluble; also recorded: hydrophobic |  |  |  |  |  |  | 
2 | COc1ccc2c3c1OC1C(OC(=O)c4ccc5c(c4)OCO5)=CC[C@H]4[C@@H](C2)N(C)CC[C@]314 (stereo partly shown) [Piperonylate-HC] | hydrophobic |  |  |  |  |  |  | water solubility (in words) ([1]; listed as piperonylate-HC): poorly water soluble
3 | COc1ccc(C(=O)OC2=CC[C@H]3[C@H]4Cc5ccc(OC)c6c5[C@@]3(CCN4C)C2O6)cc1O (stereo partly shown) [3-OH-4-MeO-Bz-HC] | poorly water soluble; also recorded: hydrophobic | 36 | 0 | 35 | 0 |  |  | 
4 | 2-aminobenzoate hydrocodone [Compound 2-ABz-HC] |  |  |  | 16 | 0 | 0 | 0 | AUC of hydrocodone, % lower than Hydrocodone.BT [5]: approximately 35%; AUC of hydromorphone, % lower than Hydrocodone.BT [5]: approximately 25%; Cmax of hydrocodone, % lower than Hydrocodone.BT [5]: ~60%; Cmax of hydromorphone, % lower than Hydrocodone.BT [5]: ~50%
5 | COc1ccc2c3c1OC1C(OC(=O)CCCCC(=O)O)=CC[C@H]4[C@@H](C2)N(C)CC[C@]314 (stereo partly shown) [Adipate-HC, reference compound] | water soluble | 100 | 3 | 100 | 13 |  |  | AUC for hydromorphone (FIG. 8), % higher than Bz-HC [6]: approximately 750%; AUC for hydromorphone (so in the source); FIG. 7, hydrocodone curves), % higher than Bz-HC [6]: approximately 280%; Cmax for hydromorphone (FIG. 8), % higher than Bz-HC [6]: ~660%; Cmax for hydromorphone (so in the source); FIG. 7, hydrocodone curves), % higher than Bz-HC [6]: ~60%
6 | COc1ccc2c3c1OC1C(OC(=O)c4ccc(O)cc4)=CC[C@H]4[C@@H](C2)N(C)CC[C@]314 (stereo partly shown) [Compound 4-OH-Bz-HC] | hydrophobic | 23 | 1 | 30 | 0 | 0 | 0 | 
7 | COc1ccc(C(=O)OC2=CC[C@H]3[C@H]4Cc5ccc(OC)c6c5[C@@]3(CCN4C)C2O6)cc1 (stereo partly shown) [Compound 4-MeO-Bz-HC] | hydrophobic |  |  |  |  | 0 | 0 | 
8 | COc1ccc2c3c1OC1C(OC(=O)c4cccnc4)=CCC4C(C2)N(C)CCC314 (stereo not shown) [Nicotinate-HC, nicotinate-hydrocodone] | hydrophobic |  |  |  |  |  |  | AUC values of hydrocodone and hydromorphone compared to Hydrocodone.BT (in words) [5]: within the range of bioequivalence
9 | COc1ccc2c3c1OC1C(OC(=O)COCC(=O)O)=CC[C@H]4[C@@H](C2)N(C)CC[C@]314 (stereo partly shown) [Diglycolate-HC, reference compound] | water soluble |  |  |  |  |  |  | 
10 | Tyr-Tyr-Phe-Phe-Ile-Hydrocodone (YYFFI-Hydrocodone) [YYFFI-HC, reference compound] |  | 70 | 0 |  |  |  |  | 
